Measured values reported in patent US20110112184A1, “COMPOUNDS WITH GLYCIDIC STRUCTURE ACTIVE IN THE THERAPY OF SYSTEMIC AND LOCAL INFLAMMATION” (priority 2008, published 2011).

test system: HT29 cells; experiment: LPS-induced IL-8 production by HT29 intestinal epithelial cells (ELISA); format: cell-based, human; details: compounds 50 mg/L to 5 μg/L for 18 h, then LPS (Salmonella enterica abortus equi) 1 μg/ml 6 h
Protocol: FIG. 2A. LPS-induced IL-8 production by HT29 cells in the absence or presence of the indicated concentrations of compound (c) 4, 5, 6, 7, 4′, 14.
The effect of the compounds on the release of IL-8 or KC was tested upon stimulation of intestinal epithelial cells (IEC) with LPS from Salmonella enterica abortus equi. The human IEC line HT29 was used for these experiments. Cells were cultured for 18 h in medium alone or in medium additioned with different concentrations of compounds 4, 5, 6, 7, 4′ and 14 (from 50 mg/L to 5 μg/L). Then, cells were stimulated for 6 h with LPS (1 μg/ml). […] Similar experiments were performed on a human pneumocyte type II cell line (A549) using compound 4 and LPS from Pseudomonas aeruginosa.

| SMILES | production of IL-8 induced by LPS |
| --- | --- |
| O=S(=O)(NCC[C@H]1O[C@H](CO)[C@@H](O)[C@H](O)[C@H]1O)c1cccc2ccccc12 [Compound 5] | significantly inhibited |
| CN(C)c1cccc2c(S(=O)(=O)NCCCC[C@H]3O[C@H](CO)[C@@H](O)[C@H](O)[C@H]3O)cccc12 [Compound 14, 5-(Dimethylamino)-N-[4′-(α-D-glucopyranosyl)butyl]-1-naphthalenesulfonamide] | significantly inhibited |
| CN(C)c1cccc2c(S(=O)(=O)NCC[C@H]3O[C@H](CO)[C@H](O)[C@H](O)[C@H]3O)cccc12 [4′, 5-(Dimethylamino)-N-[2′-(α-D-galactopyranosyl)ethyl]-1-naphthalenesulfonamide] | significantly inhibited |
| CCCCN(CCCC)c1cccc2c(S(=O)(=O)NCC[C@H]3O[C@H](CO)[C@@H](O)[C@H](O)[C@H]3O)cccc12 [Compound 7, 5-(Dibutylamino)-N-[2′-(α-D-glucopyranosyl)ethyl]-1-naphthalenesulfonamide] | significantly inhibited |
| O=C(NCC[C@H]1O[C@H](CO)[C@@H](O)[C@H](O)[C@H]1O)c1cccc2ccccc12 [Compound 6, N-[2′-(α-D-Glucopyranosyl)ethyl]-1-naphtalenecarboxyamide] | significantly inhibited |
